Test results reported in publication PMC4019636, “Rational Design of Berberine-Based FtsZ Inhibitors with Broad-Spectrum Antibacterial Activity” (PLoS ONE, 2014).

What was measured:
Type in all cases: cell-based
[1] = system: S. epidermidis ATCC 12228; test: Antimicrobial susceptibility assay (broth microdilution MIC); details: Staphylococcus epidermidis, ATCC12228; S. epidermidis ATCC 12228; 18 h at 37°C; growth inhibited by ≥90%; read-out: MIC
Source text: (§1) The bacterial strains S. aureus ATCC 29213, S. aureus ATCC 29247, S. aureus ATCC BAA-41, E. faecium ATCC 49624, E. faecium ATCC 700221, E. faecalis ATCC 29212, S. epidermidis ATCC 12228, E. coli ATCC 25922, and K. pneumoniae ATCC BAA-1144 used in the antimicrobial susceptibility assays were purchased from American Type Culture Collection (ATCC, USA). B. subtilis strain 168 was already available in our in-house collection. E. coli JM109 WM647 was kindly provided by Dr. W. Margolin (University of Texas-Houston Medical School). FM 4–64 was purchased from Invitrogen (Eugene, Oregon). All other chemicals and reagents were purchased from Sigma-Aldrich. Stock solutions were prepared in DMSO. The final percentage of DMSO in the assays was 1% (v/v) for all experiments.
(§2) Antimicrobial susceptibility tests were conducted in 96-well microplates using the broth microdilution procedure described in the Clinical and Laboratory Standards Institute (CLSI) guidelines. Cation-adjusted Mueller Hinton broth for S. aureus strain ATCC 29213, methicillin-resistant S. aureus strain ATCC BAA-41 and ampicillin-resistant S. aureus strain ATCC 29247, or brain heart infusion broth for antibiotic-susceptible E. faecium strain ATCC 49624 and vancomycin-resistant E. faecium strain ATCC 700221, or Mueller Hinton broth for antibiotic-susceptible strains B. subtilis strain 168, E. faecalis strain ATCC 29212 and E. coli strain ATCC 25922 were used in the assays. After incubation for 18 h at 37°C, the absorbance at 600 nm (A600) was recorded using a microplate reader (Bio-Rad laboratory Ltd., UK) and the percentage of bacterial cell inhibition with respect to vehicles (1% DMSO) was calculated. The MIC was defined as the lowest compound concentration at which the growth of bacteria was inhibited by ≥90%. Three independent assays were performed for each test.

S. aureus ATCC 29247 = test: as above; details: Staphylococcus aureus, ATCC29247; S. aureus ATCC 29247 (ampicillin-resistant); 18 h at 37°C; growth inhibited by ≥90%; read-out: MIC
Source text: as §1, §2

E. faecalis ATCC 29212 = test: as above; details: Enterococcus faecalis, ATCC29212; E. faecalis ATCC 29212; Mueller Hinton broth, 18 h at 37°C; growth inhibited by ≥90%; read-out: MIC
Source text: as §1, §2

S. aureus ATCC BAA-41 = test: as above; details: Staphylococcus aureus, ATCCBAA41; S. aureus ATCC BAA-41 (methicillin-resistant); 18 h at 37°C; growth inhibited by ≥90%; read-out: MIC
Source text: as §1, §2

[2] = system: K. pneumoniae ATCC BAA-1144; test: as above; details: Klebsiella pneumoniae, ATCCBAA1144; K. pneumoniae ATCC BAA-1144 (Gram-negative, expressing AmpC β-lactamase); 18 h at 37°C; growth inhibited by ≥90%; read-out: MIC
Source text: as §1, §2

S. aureus ATCC 29213 = test: as above; details: Staphylococcus aureus, ATCC29213; S. aureus ATCC 29213; cation-adjusted Mueller Hinton broth, 18 h at 37°C; growth inhibited by ≥90%; read-out: MIC
Source text: as §1, §2

B. subtilis 168 = test: as above; details: Bacillus subtilis; B. subtilis 168; Mueller Hinton broth, 18 h at 37°C; growth inhibited by ≥90%; read-out: MIC
Source text: as §1, §2

E. coli ATCC 25922 = test: as above; details: Escherichia coli, ATCC25922; E. coli ATCC 25922; Mueller Hinton broth, 18 h at 37°C; growth inhibited by ≥90%; read-out: MIC
Source text: as §1, §2

[3] = system: vancomycin-susceptible and vancomycin-resistant E. faecium; test: Antimicrobial susceptibility assay, summary over E. faecium strains; details: Enterococcus faecium
Source text: as §1, §2

E. faecium ATCC 49624 = test: Antimicrobial susceptibility assay (broth microdilution MIC); details: Enterococcus faecium, ATCC49624; E. faecium ATCC 49624; brain heart infusion broth, 18 h at 37°C; growth inhibited by ≥90%; read-out: MIC
Source text: as §1
(§3) Antimicrobial susceptibility tests were conducted in 96-well microplates using the broth microdilution procedure described in the Clinical and Laboratory Standards Institute (CLSI) guidelines. […] After incubation for 18 h at 37°C, the absorbance at 600 nm (A600) was recorded using a microplate reader (Bio-Rad laboratory Ltd., UK) and the percentage of bacterial cell inhibition with respect to vehicles (1% DMSO) was calculated. The MIC was defined as the lowest compound concentration at which the growth of bacteria was inhibited by ≥90%. Three independent assays were performed for each test.

E. faecium ATCC 700221 = test: as above; details: Enterococcus faecium, ATCC700221; E. faecium ATCC 700221 (vancomycin-resistant); brain heart infusion broth, 18 h at 37°C; growth inhibited by ≥90%; read-out: MIC
Source text: as §1, §3

| SMILES | MIC [1] | MIC (S. aureus ATCC 29247) | MIC (E. faecalis ATCC 29212) | MIC (S. aureus ATCC BAA-41) | MIC [2] | MIC (S. aureus ATCC 29213) | MIC (B. subtilis 168) | MIC (E. coli ATCC 25922) | MIC [3] | MIC (E. faecium ATCC 49624) | MIC (E. faecium ATCC 700221) |
| --- | --- | --- | --- | --- | --- | --- | --- | --- | --- | --- | --- |
| COc1ccc2cc3[n+](cc2c1OC)CCc1cc2c(cc1-3)OCO2 [Berberine, Berberine chloride] | 128 µg/mL | 128 µg/mL | > 196 µg/mL | 196 µg/mL | > 500 µg/mL | 128 µg/mL | 128 µg/mL | > 500 µg/mL | > 196 µg/mL | > 196 µg/mL | > 196 µg/mL |
| COc1ccc2cc3[n+](cc2c1OCCCOc1ccccc1)CCc1cc2c(cc1-3)OCO2 [Compound 1] | 4 µg/mL | 4 µg/mL | 16 µg/mL | 4 µg/mL | 128 µg/mL | 4 µg/mL | 8 µg/mL | 96 µg/mL | 4 to 16 µg/mL | 8 µg/mL | 8 µg/mL |
| COc1ccc2cc3[n+](cc2c1OCCCOc1ccc(Cl)cc1)CCc1cc2c(cc1-3)OCO2 [Compound 2] | 2 µg/mL | 2 µg/mL | 4 µg/mL | 2 µg/mL | 64 µg/mL | 2 µg/mL | 4 µg/mL | 32 µg/mL | 4 to 16 µg/mL | 4 µg/mL | 4 µg/mL |
| COc1ccc(OCCCOc2c(OC)ccc3cc4[n+](cc23)CCc2cc3c(cc2-4)OCO3)cc1 [Compound 3] | 4 µg/mL | 8 µg/mL | 32 µg/mL | 8 µg/mL | 128 µg/mL | 8 µg/mL | 8 µg/mL | 128 µg/mL | 4 to 16 µg/mL | 16 µg/mL | 16 µg/mL |
| COc1ccc2cc3[n+](cc2c1OCCCOc1ccccc1C)CCc1cc2c(cc1-3)OCO2 [Compound 4] | 4 µg/mL | 4 µg/mL | 8 µg/mL | 4 µg/mL | 64 µg/mL | 4 µg/mL | 8 µg/mL | 96 µg/mL | 4 to 16 µg/mL | 8 µg/mL | 8 µg/mL |
| COc1ccc2cc3[n+](cc2c1OCCCOc1ccc([N+](=O)[O-])cc1)CCc1cc2c(cc1-3)OCO2 [Compound 5] | 2 µg/mL | 2 µg/mL | 8 µg/mL | 2 µg/mL | 64 µg/mL | 2 µg/mL | 8 µg/mL | 32 µg/mL | 4 to 16 µg/mL | 8 µg/mL | 8 µg/mL |
| COc1ccc2cc3[n+](cc2c1OCCCCOc1ccccc1)CCc1cc2c(cc1-3)OCO2 [Compound 6] | 4 µg/mL | 4 µg/mL | 16 µg/mL | 4 µg/mL | 128 µg/mL | 4 µg/mL | 8 µg/mL | 96 µg/mL | 4 to 16 µg/mL | 8 µg/mL | 8 µg/mL |
